# Structures can show the parent of a compound that is named as a salt. Where two headings read alike, the source gives them in different places.
# How the values were obtained:
# in vivo = settings: rabbit
# Description: Sampling was done from the anterior chamber for the first five animals after 1 hr, 3 hr, 6 hr, 12 hr, and 24 hr, and from both the anterior chamber and posterior segment of the remaining five animals after 1 hr, 3 hr, 6 hr, 24 hr, and 48 hr. One animal was used for each time point.
# [1] = aqueous / dissolution medium (0.9% saline), cited from earlier work
clearance in the posterior segment compared with anterior chamber (in words) (in vivo),half-life (in vivo),SMILES,levels in the anterior chamber from posterior segment bolus injection (in words) (in vivo),solubility in aqueous medium (in words) ([1]; listed as timolol maleate),solubility in aqueous medium (in words) [1]
relatively slower clearance rate,~1.43 h,"CC(C)(C)NC[C@H](O)COc1nsnc1N1CCOCC1 [Timolol Maleate, (−)-1-(tert-butylamino)-3-[(4-morpholino-1,2,5-thiadiazo-3-yl)oxy]-2-propanol maleate, (1:1) salt]",the levels were small and considered insignificant,high water solubility,–
–,–,CC(C)(C)NC[C@H](O)COc1nsnc1N1CCOCC1 [Timolol freebase],–,–,less soluble
